Data from patent publication US6855710B2, “Substituted indolines with an inhibitory effect on various kinases and complexes of CDKs” (Boehringer Ingelheim Pharma KG, priority 1998, dated 2005).

system: Leimyosarcoma tumour cell line SK-UT-1B; experiment: Inhibition of the proliferation of cultivated human tumour cells (Test 2); format: cell-based; settings: Homo sapiens, Skut1B; SK-UT-1B cells; 48 hours' incubation, then 14C-thymidine for a further 24 hours; inhibition of incorporated 14C-thymidine; read-out: Inhibition of SKUT-1B-proliferation IC50
Method: Inhibition of the Proliferation of Cultivated Human Tumour Cells
Cells of the Leimyosarcoma tumour cell line SK-UT-1B (obtained from the American Type Culture Collection (ATCC)) were cultivated in Minimum Essential Medium with non-essential amino acids (Gibco), supplemented with sodium pyruvate (1 mmol), glutamine (2 mmol) and 10% foetal calf serum (Gibco) and harvested during the log-growth phase. Then the SK-UT-1B cells were added to Cytostar® multi-well plates (Amersham) at a density of 4000 cells per well and incubated overnight in an incubator. Various concentrations of the compounds (dissolved in DMSO; final concentration: <1%) were added to the cells. After 48 hours' incubation ^14C-thymidine (Amersham) was added to each well and incubation was continued for a further 24 hours. The quantity of ^14C-thymidine incorporated into the tumour cells in the presence of the inhibitor and representing the number of cells in the S phase was measured in a Wallace 1450 Microbeta Liquid Scintillation Counter. IC50 values for the inhibition of proliferation (=inhibition of incorporated ^14C-thymidine) were calculated, correcting for the background radiation. All the measurements were done twice.
The Table which follows contains the results obtained in in vitro test 2: […]

Row | SMILES | IC50
1 | CN(C)Cc1ccc(N/C(=C2\C(=O)Nc3ccc([N+](=O)[O-])cc32)c2ccccc2)cc1 [Example 117, (Z)-3-[1-(4-dimethylaminomethyl-phenylamino)-1-phenyl-methylidene]-5-nitro-2-indolinone] | 340 nM
2 | O=C1Nc2ccc([N+](=O)[O-])cc2/C1=C(/Nc1ccc(CN2CCCCC2)cc1)c1ccccc1 [Example 170, (Z)-3-[1-(4-piperidinomethyl-phenylamino)-1-phenyl-methylidene]-5-nitro-2-indolinone] | 220 nM
3 | O=C1Nc2ccc([N+](=O)[O-])cc2/C1=C(/Nc1ccc(CCN2CCOCC2)cc1)c1ccccc1 [Example 133, (Z)-3-{1-[4-(2-morpholinoethyl)-phenylamino]-1-phenyl-methylidene}-5-nitro-2-indolinone] | 480 nM
4 | CN(C)CCc1ccc(N/C(=C2\C(=O)Nc3ccc([N+](=O)[O-])cc32)c2ccccc2)cc1 [Example 134, (Z)-3-{1-[4-(2-dimethylamino-ethyl)-phenylamino]-1-phenyl-methylidene}-5-nitro-2-indolinone] | 560 nM

same assay, conditions: SK-UT-1B cells; 48 hours' incubation, then 14C-thymidine for a further 24 hours; inhibition of incorporated 14C-thymidine; read-out: Inhibition of SKUT-1B-proliferation IC50

Row | SMILES | IC50
5 | CN(C)CCN(c1ccc(N/C(=C2\C(=O)Nc3ccccc32)c2ccccc2)cc1)S(C)(=O)=O [Example 188] | 150 nM

system: not given; experiment: not given; settings: not given

Row | SMILES | melting point
6 | CN(C)Cc1ccc(N/C(=C2\C(=O)Nc3ccc([N+](=O)[O-])cc32)c2ccccc2)cc1 [Example 117, (Z)-3-[1-(4-dimethylaminomethyl-phenylamino)-1-phenyl-methylidene]-5-nitro-2-indolinone] | 264 to 265 °C
7 | O=C1Nc2ccc([N+](=O)[O-])cc2/C1=C(/Nc1ccc(CN2CCCCC2)cc1)c1ccccc1 [Example 170, (Z)-3-[1-(4-piperidinomethyl-phenylamino)-1-phenyl-methylidene]-5-nitro-2-indolinone] | 242 to 243 °C
8 | O=C1Nc2ccc([N+](=O)[O-])cc2/C1=C(/Nc1ccc(CCN2CCOCC2)cc1)c1ccccc1 [Example 133, (Z)-3-{1-[4-(2-morpholinoethyl)-phenylamino]-1-phenyl-methylidene}-5-nitro-2-indolinone] | 304 to 306 °C
9 | CN(C)CCc1ccc(N/C(=C2\C(=O)Nc3ccc([N+](=O)[O-])cc32)c2ccccc2)cc1 [Example 134, (Z)-3-{1-[4-(2-dimethylamino-ethyl)-phenylamino]-1-phenyl-methylidene}-5-nitro-2-indolinone] | 238 to 240 °C
10 | CC(=O)NCc1cccc(N/C(=C2\C(=O)Nc3ccc([N+](=O)[O-])cc32)c2ccccc2)c1 [Example 138, (Z)-3-[1-(3-acetylaminomethyl-phenylamino)-1-phenyl-methylidene]-5-nitro-2-indolinone] | 238 °C
11 | O=C1Nc2ccccc2/C1=C(/Nc1ccc(C(=O)O)cc1)c1ccccc1 [Example 17, (Z)-3-[1-(4-carboxy-phenylamino)-1-phenyl-methylidene]-2-indolinone] | 312 to 316 °C
12 | CCN(CC)CC(=O)Nc1ccc(N/C(=C2\C(=O)Nc3ccc([N+](=O)[O-])cc32)c2ccccc2)cc1.Cl | 287 to 288 °C
13 | COC(=O)CNC(=O)c1ccc(/C(Nc2ccc(CN3CCCCC3)cc2)=C2/C(=O)Nc3ccc([N+](=O)[O-])cc32)cc1 [Example 446, (Z)-3-[1-(4-piperidinomethyl-phenylamino)-1-(4-methoxycarbonylmethylaminocarbonyl-phenyl)-methylidene]-5-nitro-2-indolinone] | 230 to 235 °C
14 | O=C1Nc2ccc([N+](=O)[O-])cc2/C1=C(/Nc1ccc(CNc2ccccc2)cc1)c1ccccc1 [Example 233, (Z)-3-{1-[4-(phenylaminomethyl)-phenylamino]-1-phenyl-methylidene}-5-nitro-2-indolinone] | 274 to 277 °C
15 | CN(Cc1ccc(N/C(=C2\C(=O)Nc3ccc([N+](=O)[O-])cc32)c2ccccc2)cc1)c1ccccc1 [Example 234, (Z)-3-{1-[4-(N-methyl-N-phenyl-aminomethyl)-phenylamino]-1-phenyl-methylidene}-5-nitro-2-indolinone] | 228 to 230 °C
16 | O=C(O)CCNCc1ccc(N/C(=C2\C(=O)Nc3ccc([N+](=O)[O-])cc32)c2ccccc2)cc1 [Example 242, (Z)-3-{1-[4-(2-carboxy-ethylaminomethyl)-phenylamino]-1-phenyl-methylidene}-5-nitro-2-indolinone] | 220 to 222 °C
17 | CCCN(CCC)Cc1ccc(N/C(=C2\C(=O)Nc3ccc([N+](=O)[O-])cc32)c2ccccc2)cc1 [Example 161, (Z)-3-[1-(4-Dipropylaminomethyl-phenylamino)-1-phenyl-methylidene]-5-nitro-2-indolinone] | 160 to 162 °C
18 | CCOC(=O)CCCN(c1ccc(N/C(=C2\C(=O)Nc3ccccc32)c2ccccc2)cc1)S(C)(=O)=O [Example 195, (Z)-3-{1-[4-(N-(3-ethoxycarbonyl-propyl)-N-methylsulphonyl-amino)-phenylamino]-1-phenyl-methylidene}-2-indolinone] | 265 to 268 °C
19 | CC(=O)N(CC(=O)N(C)C)c1ccc(N/C(=C2\C(=O)Nc3ccccc32)c2ccccc2)cc1 [Example 355, (Z)-3-{1-[4-(N-dimethylaminocarbonylmethyl-N-acetyl-amino)-phenylamino]-1-phenyl-methylidene}-2-indolinone] | 264 to 268 °C
20 | CN(C(=O)CN)c1ccc(N/C(=C2\C(=O)Nc3ccccc32)c2ccccc2)cc1 [Example 366, (Z)-3-{1-[4-(N-aminomethylcarbonyl-N-methyl-amino)-phenylamino]-1-phenyl-methylidene}-2-indolinone] | 238 to 239 °C
21 | C[C@H](NC(=O)OC(C)(C)C)c1ccc(N/C(=C2\C(=O)Nc3ccc([N+](=O)[O-])cc32)c2ccccc2)cc1 [Example 123, (Z,S)-3-{1-[4-(1-tert.butoxycarbonylamino-ethyl)-phenylamino]-1-phenyl-methylidene}-5-nitro-2-indolinone] | 247 to 249 °C (dec.)
22 | CCOC(=O)CNC(=O)c1cccc(N/C(=C2\C(=O)Nc3ccccc32)c2ccccc2)c1 [Example 23, (Z)-3-[1-(3-ethoxycarbonylmethylaminocarbonyl-phenylamino)-1-phenyl-methylidene]-2-indolinone] | 233 to 235 °C
23 | CCCC(=O)N(CCN(C)C)c1ccc(N/C(=C2\C(=O)Nc3ccc([N+](=O)[O-])cc32)c2ccccc2)cc1 [Example 331, (Z)-3-{1-[4-(N-(2-dimethylaminoethyl)-N-propylcarbonyl-amino)-phenylamino]-1-phenyl-methylidene}-5-nitro-2-indolinone] | 275 to 277 °C
24 | CN(Cc1ccccc1)Cc1ccc(N/C(=C2\C(=O)Nc3ccc([N+](=O)[O-])cc32)c2ccc(Cn3ccnc3)cc2)cc1 [Example 440, (Z)-3-{1-[4-(N-benzyl-N-methyl-aminomethyl)-phenylamino]-1-[4-(imidazol-1-ylmethyl)-phenyl]-methylidene}-5-nitro-2-indolinone] | 195 to 198 °C
25 | CCS(=O)(=O)N(CC(=O)N(C)CCN(C)C)c1ccc(N/C(=C2\C(=O)Nc3ccccc32)c2ccccc2)cc1 [Example 302, (Z)-3-{1-[4-(N—((N-(2-dimethylaminoethyl)-N-methyl-amino)-carbonylmethyl)-N-ethylsulphonyl-amino)-phenylamino]-1-phenyl-methylidene}-2-indolinone] | 170 to 172 °C
26 | CN(C)C(=O)CN(c1cccc(N/C(=C2\C(=O)Nc3ccccc32)c2ccccc2)c1)S(C)(=O)=O [Example 321, (Z)-3-{1-[3-(N-dimethylaminocarbonylmethyl-N-methylsulphonyl-amino)-phenylamino]-1-phenyl-methylidene}-2-indolinone] | 213 to 216 °C
27 | CN(C)CCN(C=O)c1ccc(N/C(=C2\C(=O)Nc3ccc([N+](=O)[O-])cc32)c2ccccc2)cc1 [Example 327, (Z)-3-{1-[4-(N-(2-dimethylaminoethyl)-N-formyl-amino)-phenylamino]-1-phenyl-methylidene}-5-nitro-2-indolinone] | 215 to 218 °C
28 | O=C1Nc2ccc([N+](=O)[O-])cc2/C1=C(/Nc1ccc(CN2CCCCC2)cc1)c1ccc(Cl)cc1 [Example 443, (Z)-3-[1-(4-piperidinomethyl-phenylamino)-1-(4-chlorophenyl)-methylidene]-5-nitro-2-indolinone] | 309 to 311 °C
29 | Cl.NCc1ccc(N/C(=C2\C(=O)Nc3ccc([N+](=O)[O-])cc32)c2ccccc2)cc1 | > 370 °C
30 | Cc1ccc(/C(Nc2ccc(CN(C)C)cc2)=C2/C(=O)Nc3ccc([N+](=O)[O-])cc32)cc1 [Example 212, (Z)-3-[1-(4-dimethylaminomethyl-phenylamino)-1-(p-tolyl)-methylidene]-5-nitro-2-indolinone] | 274 to 276 °C
31 | CCC(=O)N(CCN(C)C)c1ccc(N/C(=C2\C(=O)Nc3ccccc32)c2ccccc2)cc1 [Example 341, (Z)-3-{1-[4-(N-(2-dimethylaminoethyl)-N-propionyl-amino)-phenylamino]-1-phenyl-methylidene}-2-indolinone] | 272 to 274 °C
